In assay [1] the target is T1, human 5-HT2AR (Homo sapiens, UniProt P28223).
T1 construct: expressed in transfected cells; host or cells: HEK293
The assay is described as follows: HTRF-based IP1 accumulation assay (5-HT2AR antagonistic effect). The assay is classed as cell-based. The note with it: HEK293 cells overexpressing human 5-HT2AR; serotonin at EC80. The protocol:
The 5-HT2AR antagonistic effect of the test compounds was confirmed by measuring the production amount of IP1 using the HEK293 cell line permanently overexpressing the human 5-HT2AR. The test compounds were dissolved in 100% DMSO to a final concentration of 10 mM. The starting concentration of 10 μM was prepared from the stock solution, followed by serial dilutions to prepare working solutions in a buffer containing lithium chloride (LiCl). The cells and compounds prepared in the test buffer were placed in a 96-well plate and incubated at room temperature for 10 minutes. Serotonin of EC80 concentration was added, followed by incubation at 37° C. for 30 minutes in a light-shielding state. To measure IP1 accumulation in cells, JP1-d2 acceptor and IP1-Cryptate donor-which are HTRF-based substances for fluorescence signals-were added and incubated for 1 hour at room temperature in a light-shielded state. The fluorescent emission signals of acceptor and donor were detected, and HTRF ratio values were substracted by mean value of serotonin control. The percentage of activation was calculated by normalization of the serotonin control (0%) and IP1 control (100%). The IC50 values of the test compounds are represented in Table 1. (+: 1,000-2,000 nM, ++: 500-1,000 nM, +++: 100-500 nM, ++++: less than 100 nM).

Assay [2] has as its target T2, mGluR5 (Homo sapiens, UniProt P41594).
T2 construct: expressed in transfected cells; host or cells: HEK293
Description: Fluorescence-based Ca2+ mobilization assay. The assay is classed as cell-based. The conditions noted are these: HEK293 cells overexpressing mGluR5; L-glutamate at EC80. As for the experimental part:
In order to measure the activity on the mGluR5, an experiment was carried out to check the change in the intracellular Ca^2+ level using the HEK293 cell line permanently overexpressing the mGluR5. The cells in the cell culture medium were aliquoted into a 384-well plate coated with poly-D-lysine and cultured in a 37° C. incubator supplied with 5% CO2. The next day, the medium was removed and a dye loading buffer—in which a reagent capable of measuring Ca^2+ was dissolved—was added, and then incubated at 37° C. for 60 minutes. The test compounds were dissolved in 100% DMSO at a final concentration of 10 mM to make a stock solution. The starting concentration of […] was prepared from the stock solution, followed by serial dilutions to prepare working solutions (test compound working solutions). The test compound working solutions were added to the cells that were incubated in the dye loading buffer, which were maintained for 30 minutes at room temperature in a light-shielding state before measurement. The Ca^2+ level change induced by L-glutamate at EC80 concentration was measured for 2 minutes using FLIPR Tetra (MDS Analytical Technologies). The fluorescent Ca^2+ signal values in the presence of the test compounds were normalized to the fluorescent signal elicited by […] concentration of L-glutamate as 100% and that elicited by vehicle as 0% to estimate % inhibition of the test compounds. The efficacy of the test compounds was calculated as IC50 values and represented in Table 1. (+: 1,000-2,000 nM, ++: 500-1,000 nM, +++: 100-500 nM, ++++: less than 100 nM).

In general, IC50 refers to the concentration needed to halve the response being measured. A high value points to weaker potency in that assay.

Molecules are shown by their SMILES.

T1 sequence (P28223 whole entry): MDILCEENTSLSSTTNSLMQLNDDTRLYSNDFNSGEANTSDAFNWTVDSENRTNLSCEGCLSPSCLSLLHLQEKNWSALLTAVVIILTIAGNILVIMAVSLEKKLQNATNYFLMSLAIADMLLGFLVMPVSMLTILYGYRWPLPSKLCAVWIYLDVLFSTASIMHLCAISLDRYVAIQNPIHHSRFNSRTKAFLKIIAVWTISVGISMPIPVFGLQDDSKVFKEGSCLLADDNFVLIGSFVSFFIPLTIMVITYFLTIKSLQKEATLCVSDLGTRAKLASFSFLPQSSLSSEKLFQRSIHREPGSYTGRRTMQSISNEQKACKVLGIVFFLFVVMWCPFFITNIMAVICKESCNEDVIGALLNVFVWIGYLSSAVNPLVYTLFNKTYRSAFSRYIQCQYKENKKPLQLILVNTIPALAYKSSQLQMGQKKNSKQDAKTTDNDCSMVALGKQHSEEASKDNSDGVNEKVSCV
T2 sequence (P41594 21-1212): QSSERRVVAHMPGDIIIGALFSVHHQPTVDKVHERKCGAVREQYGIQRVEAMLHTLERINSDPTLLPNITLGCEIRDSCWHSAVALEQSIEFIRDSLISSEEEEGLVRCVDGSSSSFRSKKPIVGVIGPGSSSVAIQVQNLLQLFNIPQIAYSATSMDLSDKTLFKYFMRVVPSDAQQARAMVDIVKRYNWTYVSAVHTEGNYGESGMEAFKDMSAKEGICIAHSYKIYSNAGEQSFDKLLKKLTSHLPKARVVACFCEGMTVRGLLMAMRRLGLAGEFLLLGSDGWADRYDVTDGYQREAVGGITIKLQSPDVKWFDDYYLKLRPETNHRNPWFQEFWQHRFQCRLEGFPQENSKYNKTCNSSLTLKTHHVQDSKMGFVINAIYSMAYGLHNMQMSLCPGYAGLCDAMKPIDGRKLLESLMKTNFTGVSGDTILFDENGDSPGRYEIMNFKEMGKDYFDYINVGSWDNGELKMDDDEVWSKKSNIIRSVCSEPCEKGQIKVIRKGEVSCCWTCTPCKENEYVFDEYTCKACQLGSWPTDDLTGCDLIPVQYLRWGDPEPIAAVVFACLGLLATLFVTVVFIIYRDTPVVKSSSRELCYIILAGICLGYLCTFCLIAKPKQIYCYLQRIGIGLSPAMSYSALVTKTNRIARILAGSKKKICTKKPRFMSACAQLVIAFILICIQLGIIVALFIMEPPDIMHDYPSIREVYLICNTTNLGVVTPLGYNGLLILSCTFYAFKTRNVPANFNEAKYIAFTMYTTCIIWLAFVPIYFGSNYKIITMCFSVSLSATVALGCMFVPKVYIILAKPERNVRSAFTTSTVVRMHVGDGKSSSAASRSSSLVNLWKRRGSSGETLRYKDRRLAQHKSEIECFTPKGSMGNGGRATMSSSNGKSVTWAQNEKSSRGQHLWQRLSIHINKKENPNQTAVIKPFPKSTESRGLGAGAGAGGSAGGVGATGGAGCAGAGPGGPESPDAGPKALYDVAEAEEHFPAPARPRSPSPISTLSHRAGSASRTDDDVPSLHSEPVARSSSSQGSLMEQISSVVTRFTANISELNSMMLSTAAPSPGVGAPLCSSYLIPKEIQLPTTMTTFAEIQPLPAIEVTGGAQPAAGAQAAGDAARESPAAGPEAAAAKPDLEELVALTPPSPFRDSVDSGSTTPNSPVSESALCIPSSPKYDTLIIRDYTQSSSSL

Consider `[2H]C(NC(=O)c1ccc(C#Cc2ccccc2F)cc1)C1(C)COC1` (stereo not shown) [Example 95, 4-((2-fluorophenyl)ethynyl)-N-((3-methyloxetan-3-yl)methyl-d)benzamide], for which the IC50 was 0.5 to 1 µM in assay [1] and under 0.1 µM in assay [2].
On to `O=C(NCC1(N2CCOCC2)CCC1)c1ccc(C#Cc2ccccc2F)cc1` [Example 96, 4-((2-fluorophenyl)ethynyl)-N-((1-morpholinocyclobutyl)methyl)benzamide], for which the figures for the IC50 in assay [1] and in assay [2] were 0.5 to 1 µM and 1 to 2 µM, respectively.
For `CC1(CNC(=O)c2ccc(C#Cc3ccccc3F)cc2)CC(F)(F)C1` [Example 97, N-((3,3-difluoro-1-methylcyclobutyl)methyl)-4-((2-fluorophenyl)ethynyl)benzamide], in that order: 1 to 2 µM and under 0.1 µM.
For `CC1(CNC(=O)c2ccc(C#Cc3ccccc3F)cc2)CCCO1` (stereo not shown) [Example 98, 4-((2-fluorophenyl)ethynyl)-N-((2-methyltetrahydrofuran-2-yl)methyl)benzamide], the IC50 in assay [1] is 0.5 to 1 µM; in assay [2] it was under 0.1 µM.
For `O=C(NC[C@H]1CCCOC1)c1ccc(C#Cc2ccc(F)cc2)cc1` [Example 99, (R)-4-((4-fluorophenyl)ethynyl)-N-((tetrahydro-2H-pyran-3-yl)methyl)benzamide], in that order: 0.1 to 0.5 µM and under 0.1 µM.
With `O=C(NC[C@@H]1CCCOC1)c1ccc(C#Cc2ccc(F)cc2)cc1` [Example 100, (S)-4-((4-fluorophenyl)ethynyl)-N-((tetrahydro-2H-pyran-3-yl)methyl)benzamide], the results for the IC50 in assay [1] and in assay [2] were 0.5 to 1 µM and 0.1 to 0.5 µM, respectively.
For `O=C(NC[C@H]1CCOC1)c1ccc(C#Cc2ccc(F)cc2)cc1` [Example 101, (R)-4-((4-fluorophenyl)ethynyl)-N-((tetrahydrofuran-3-yl)methyl)benzamide], in that order: 0.1 to 0.5 µM and under 0.1 µM.
For `O=C(NC[C@@H]1CCOC1)c1ccc(C#Cc2ccc(F)cc2)cc1` [Example 102, (S)-4-((4-fluorophenyl)ethynyl)-N-((tetrahydrofuran-3-yl)methyl)benzamide], in that order: under 0.1 µM and 0.1 to 0.5 µM.
Regarding `O=C(NCC1(F)COC1)c1ccc(C#Cc2ccccc2F)cc1` [Example 103, N-((3-fluorooxetan-3-yl)methyl)-4-((2-fluorophenyl)ethynyl)benzamide], the IC50 in assay [1] and in assay [2] was 1 to 2 µM throughout.
`CC1(CNC(=O)c2ccc(C#Cc3ccc(F)cc3)cc2)CCCCC1` [Example 104, 4-((4-fluorophenyl)ethynyl)-N-((1-methylcyclohexyl)methyl)benzamide]: the IC50 in assay [1] is 1 to 2 µM; in assay [2], under 0.1 µM.
For `CC1(CNC(=O)c2ccc(C#Cc3ccccc3F)cc2)CCC1` [Example 105, 4-((2-fluorophenyl)ethynyl)-N-((1-methylcyclobutyl)methyl)benzamide], in that order: 0.5 to 1 µM and under 0.1 µM.
As to `CC1(CNC(=O)c2ccc(C#Cc3ccc(F)cc3)cc2)CCC1` [Example 106, 4-((4-fluorophenyl)ethynyl)-N-((1-methylcyclobutyl)methyl)benzamide], the IC50 in assay [1] was 0.1 to 0.5 µM; in assay [2], under 0.1 µM.
The corresponding values for `CC1(CNC(=O)c2ccc(C#Cc3ccc(F)cc3F)cc2)CCC1` [Example 107, 4-((2,4-difluorophenyl)ethynyl)-N-((1-methylcyclobutyl)methyl)benzamide] are under 0.1 µM and under 0.1 µM.
The corresponding values for `CC1(CNC(=O)c2ccc(C#Cc3ccc(F)cc3F)cc2)CCCC1` [Example 108, 4-((2,4-difluorophenyl)ethynyl)-N-((1-methylcyclopentyl)methyl)benzamide] are 0.1 to 0.5 µM and under 0.1 µM.
For `O=C(NC[C@H]1CCOC1)c1ccc(C#Cc2ccc(F)cc2F)cc1` [Example 109, (R)-4-((2,4-difluorophenyl)ethynyl)-N-((tetrahydrofuran-3-yl)methyl)benzamide], in that order: 0.1 to 0.5 µM and 0.5 to 1 µM.
As to `O=C(NC[C@H]1CCCO1)c1ccc(C#Cc2ccc(F)cc2)cc1` [Example 110, (R)-4-((4-fluorophenyl)ethynyl)-N-((tetrahydrofuran-2-yl)methyl)benzamide], the IC50 is 0.1 to 0.5 µM in assay [1] and under 0.1 µM in assay [2].
For `O=C(NC[C@@H]1CCCO1)c1ccc(C#Cc2ccc(F)cc2)cc1` [Example 111, (S)-4-((4-fluorophenyl)ethynyl)-N-((tetrahydrofuran-2-yl)methyl)benzamide], in that order: 0.1 to 0.5 µM and 0.1 to 0.5 µM.
For the compound `CCC1(CNC(=O)c2ccc(C#Cc3ccc(F)cc3)cc2)COC1` [Example 112, N-((3-ethyloxetan-3-yl)methyl)-4-((4-fluorophenyl)ethynyl)benzamide], the IC50 in assay [1] and in assay [2] was 0.1 to 0.5 µM in each case.
Turning to `O=C(NC[C@@H]1CCOC1)c1ccc(C#Cc2ccc(F)cc2F)cc1` [Example 113, (S)-4-((2,4-difluorophenyl)ethynyl)-N-((tetrahydrofuran-3-yl)methyl)benzamide], the IC50 in assay [1] was under 0.1 µM; in assay [2], 0.5 to 1 µM.
For `O=C(NC[C@H]1CCCO1)c1ccc(C#Cc2ccc(F)cc2F)cc1` [Example 114, (R)-4-((2,4-difluorophenyl)ethynyl)-N-((tetrahydrofuran-2-yl)methyl)benzamide], in that order: under 0.1 µM and under 0.1 µM.
Take `O=C(NCC1CCCCO1)c1ccc(C#Cc2ccc(F)cc2F)cc1` (stereo not shown) [Example 115, 4-((2,4-difluorophenyl)ethynyl)-N-((tetrahydro-2H-pyran-2-yl)methyl)benzamide]: the IC50 in assay [1] is under 0.1 µM; in assay [2], 0.1 to 0.5 µM.
For `CC1(CNC(=O)c2ccc(C#Cc3ccc(F)cc3)cc2)CCCO1` (stereo not shown) [Example 116, 4-((4-fluorophenyl)ethynyl)-N-((2-methyltetrahydrofuran-2-yl)methyl)benzamide], in that order: under 0.1 µM and under 0.1 µM.
On to `O=C(NC[C@@H]1CCCO1)c1ccc(C#Cc2ccc(F)cc2F)cc1` [Example 117, (S)-4-((2,4-difluorophenyl)ethynyl)-N-((tetrahydrofuran-2-yl)methyl)benzamide], for which the IC50 in assay [1] was under 0.1 µM; in assay [2] it was 0.5 to 1 µM.
With `O=C(NCC1CCO1)c1ccc(C#Cc2ccc(F)cc2F)cc1` (stereo not shown) [Example 118, 4-((2,4-difluorophenyl)ethynyl)-N-(oxetan-2-ylmethyl)benzamide], the IC50 is under 0.1 µM in assay [1] and 1 to 2 µM in assay [2].
The corresponding values for `CC1(CNC(=O)c2ccc(C#Cc3ccc(F)cc3F)cc2)CCCO1` (stereo not shown) [Example 119, 4-((2,4-difluorophenyl)ethynyl)-N-((2-methyltetrahydrofuran-2-yl)methyl)benzamide] are under 0.1 µM and under 0.1 µM.
For `O=C(NCC1CC(F)(F)C1)c1ccc(C#Cc2ccc(F)cc2F)cc1` [Example 120, N-((3,3-difluorocyclobutyl)methyl)-4-((2,4-difluorophenyl)ethynyl)benzamide], in that order: under 0.1 µM and 0.1 to 0.5 µM.
For `O=C(NCC1CCC(F)(F)CC1)c1ccc(C#Cc2ccc(F)cc2F)cc1` [Example 121, N-((4,4-difluorocyclohexyl)methyl)-4-((2,4-difluorophenyl)ethynyl)benzamide], in that order: 0.5 to 1 µM and under 0.1 µM.
For the compound `CCC1(CNC(=O)c2ccc(C#Cc3ccc(F)cc3F)cc2)COC1` [Example 122, 4-((2,4-difluorophenyl)ethynyl)-N-((3-ethyloxetan-3-yl)methyl)benzamide], the concentration for half-maximal inhibition (IC50) is under 0.1 µM in assay [1] and 0.1 to 0.5 µM in assay [2].
In the case of `O=C(NCC1(F)COC1)c1ccc(C#Cc2ccc(F)cc2F)cc1` [Example 123, 4-((2,4-difluorophenyl)ethynyl)-N-((3-fluorooxetan-3-yl)methyl)benzamide], the IC50 in assay [1] was under 0.1 µM; in assay [2], 0.5 to 1 µM.

The values are drawn from patent publication US12435051B2, “Dual modulator of mGluR5 and 5-HT2A receptor, and use thereof” (Vivozon Inc., priority 2020, dated 2025).
